Measured values taken from patent US7601685B2, “Growth factor modified protein matrices for tissue engineering” (Eidgenossische Technische Hochschule Zurich, priority 1998, dated 2009).

Key:
[1] = test system: critical size rat cranial defect; assay: Rat critical size cranial defect healing; type: in vivo; conditions: for Healing (% defect filled with bone): Time 63 Days
[2] = test system: sheep drill defect; assay: Sheep bone drill defect healing; type: in vivo; conditions: healing time 8 weeks
Procedure: To form the fibrin gel, the dilute precursors were mixed together by injecting the fibrinogen into the tube containing the thrombin. In case of the sheep drill defect (as described below) this mixture was then injected immediately into a drill defect created in sheep cancellous bone, where a fibrin gel formed within 1-5 minutes. In the first series of animal experiments, the efficacy of a fusion protein containing PTH1-34 as the bioactive factor ([…], SEQ ID NO:38) in healing cortical bone was tested in a small animal model. The sequence, YKNR, makes the linkage plasmin degradable (“TG-pl-PTH1-34). The TG-pl-PTH1-34 was made by chemical synthesis. […] The purity of the TG-pl-PTH1-34 was determined to be 95%.
TG-pl-PTH1-34 was tested as well in a long bone defect model to test the effect of this hormone on healing bone. In the sheep drill defect model, 8 mm cylindrically drill defects that were approximately 15 mm deep were placed in both the proximal and distal region of the femur and humerus bones. Since the defect was placed in the epiphysis of the long bones, the defect was surrounded by trabecular bone with a thin layer of cortical bone at the rim of the defect. These defects were then filled with an in situ polymerizing fibrin (about 750 μL) that contained various doses of TG-pl-PTH1-34. or TGPTH1-34. Animals were allowed to heal for eight weeks and then were sacrificed. The defect was analyzed with μCT and histology.
For this series of experiments, three types of compositions were tested. First, TG-pl-PTH1-34 was tested over a large concentration range. […] Thus, TGPTH1-34 could only be liberated by degradation of the fibrin matrix itself. TGPTH1-34 was produced and purified similar to TG-pl-PTH1-34. Purity was determined to be 95%. TGPTH1-34 was tested at several concentrations that were similar to the concentrations of TG-pl-PTH1-34 to compare efficacy. Finally, matrices were made in the presence of granular material, with either TGPTH1-34 or TG-pl-PTH1-34. The granular material was a standard tricalcium phosphate/hydroxyapatite mixture which was embedded in the matrix during gelation. The effect of adding these granules on the efficacy of PTH1-34 was explored. As a control, unmodified fibrin was tested.
The fibrin gel for all experiments was made as described in Example 7. The sheep bone defects were prepared as described in Example 7. The defects were filled with 750 μL of fibrin matrix alone (control) or with TG-pl-PDGFAB, TG-pl-IGF1 or TG-pl-BMP2. The sheep were allowed to heal for eight weeks and were then sacrificed. The explanted defect area was examined with μCT to evaluate the degree of new bone formation.

[3] = test system: chronic leg ulcers of the venous stasis origins; assay: Chronic wound healing on skin in human patients; type: in vivo
Procedure: TG-pl-PDGF AB as described in Example 7 was incorporated into fibrin gels at 33 μg/mL gel and applied topically to patients with chronic leg ulcers of the venous stasis origins (at the Dermatology Klinik of the University Hospital Zürich.)
The fibrin gels were made from Baxter TISSUCOL® kits (Baxter AG, CH 8604 Volketswil) by diluting the fibrinogen component with Citrate-Glycine buffer (pH 7.3) and diluting the thrombin component with 40 mM Calcium chloride-glycine buffer (pH 7.0). The final concentration of fibrinogen in the applied fibrin gel was about 12.5 mg fibrinogen/mL gel. The thrombin concentration was varied to improve handling of the gels. The final concentration of thrombin in the applied fibrin gel was about 4 to 50 U/mL. TG-pl-PDGF AB was added to the diluted fibrinogen component at 66 μg/mL for a total of 33 μg/mL gel concentration. The diluted fibrinogen and thrombin components were packed in separate sterile syringes at the same volume and deep frozen at −20° C. until use.
The gels were applied via a dual syringe system as provided in the TISSUCOL® kit from Baxter. Briefly, each syringe contained either diluted fibrinogen or diluted thrombin. The two syringes were connected to an applicator set and joined by a tip with a blunt cannula. To form a gel, both components were pushed out of the syringes simultaneously, making a 1:1 mixture fibrin gel directly on the ulcer area. Ulcers were covered with a thin sheath of gel, which was allowed to dry for 2 minutes before standard dressing and compression bandaging was applied.

[4] = test system: chick DRGs; assay: Neurite extension of DRGs in fibrin matrices with immobilized β-NGF fusion proteins; type: cell-based
Text: FIG. 3 is a graph of the effect of immobilized β-NGF fusion proteins on DRG neurite extension within fibrin matrices. Mean values and standard error of the mean are shown. ▪ denotes native NGF. ♦ denotes TG-P-NGF. ● denotes TG-Pi-NGF. * denotes p<0.0001 versus unmodified fibrin with NGF in the culture medium.
To determine the ability of covalently immobilized β-NGF fusion protein to be delivered in a controlled manner, β-NGF fusion proteins were incorporated into fibrin matrices during polymerization, and the ability of these matrices to enhance neurite extension in vitro was assayed using chick DRGs. […] A dose response effect for TG-P-NGF fusion protein was observed, with an optimal dose attained when 1-5 μg/mL of β-NGF fusion protein was present in the polymerization mixture. […] Despite the lower activity of the β-NGF fusion proteins in the PC12 cell activity assay, when the plasmin degradable β-NGF fusion protein was covalently coupled to fibrin, it promoted greater levels of neurite extension than the same dose of native NGF in the culture medium.

[5] = target: fibrin gels (Homo sapiens, UniProt P02671+P02675+P02679); conditions: cross-linked during polymerization; gels degraded with plasmin; n=10
Sequence of fibrin gels (P02671 20-644 isoform P02671-2 limits assumed): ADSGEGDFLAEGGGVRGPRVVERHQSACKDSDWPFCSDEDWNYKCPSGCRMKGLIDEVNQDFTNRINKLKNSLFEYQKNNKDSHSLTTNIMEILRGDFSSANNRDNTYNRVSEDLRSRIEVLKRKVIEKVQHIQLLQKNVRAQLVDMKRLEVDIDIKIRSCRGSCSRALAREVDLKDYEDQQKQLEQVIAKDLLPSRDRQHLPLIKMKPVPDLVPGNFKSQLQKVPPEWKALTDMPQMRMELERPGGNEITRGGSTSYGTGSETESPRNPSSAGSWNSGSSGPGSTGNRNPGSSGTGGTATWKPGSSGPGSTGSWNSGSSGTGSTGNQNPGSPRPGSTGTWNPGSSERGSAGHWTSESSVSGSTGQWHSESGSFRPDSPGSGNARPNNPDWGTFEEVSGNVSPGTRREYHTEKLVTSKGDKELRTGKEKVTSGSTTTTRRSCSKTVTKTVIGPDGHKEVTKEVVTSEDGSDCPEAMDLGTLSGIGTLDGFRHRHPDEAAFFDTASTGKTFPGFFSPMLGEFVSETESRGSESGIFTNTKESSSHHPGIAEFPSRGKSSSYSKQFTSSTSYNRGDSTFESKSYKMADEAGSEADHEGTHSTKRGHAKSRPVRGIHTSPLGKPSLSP
Sequence of fibrin gels (P02675 45-491 limits assumed): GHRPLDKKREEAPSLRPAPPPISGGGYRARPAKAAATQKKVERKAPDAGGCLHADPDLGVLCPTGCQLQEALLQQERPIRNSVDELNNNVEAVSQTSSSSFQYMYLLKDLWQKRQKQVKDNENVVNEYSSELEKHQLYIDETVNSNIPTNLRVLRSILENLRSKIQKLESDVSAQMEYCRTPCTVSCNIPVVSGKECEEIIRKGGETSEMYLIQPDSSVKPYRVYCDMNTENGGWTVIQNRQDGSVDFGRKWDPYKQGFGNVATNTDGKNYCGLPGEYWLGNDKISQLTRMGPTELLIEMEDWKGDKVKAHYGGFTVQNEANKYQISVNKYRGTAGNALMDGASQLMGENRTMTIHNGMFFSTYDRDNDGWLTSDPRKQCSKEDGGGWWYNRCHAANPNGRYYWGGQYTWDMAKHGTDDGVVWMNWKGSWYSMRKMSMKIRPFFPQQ
Sequence of fibrin gels (P02679 27-437 isoform P02679-2 limits assumed): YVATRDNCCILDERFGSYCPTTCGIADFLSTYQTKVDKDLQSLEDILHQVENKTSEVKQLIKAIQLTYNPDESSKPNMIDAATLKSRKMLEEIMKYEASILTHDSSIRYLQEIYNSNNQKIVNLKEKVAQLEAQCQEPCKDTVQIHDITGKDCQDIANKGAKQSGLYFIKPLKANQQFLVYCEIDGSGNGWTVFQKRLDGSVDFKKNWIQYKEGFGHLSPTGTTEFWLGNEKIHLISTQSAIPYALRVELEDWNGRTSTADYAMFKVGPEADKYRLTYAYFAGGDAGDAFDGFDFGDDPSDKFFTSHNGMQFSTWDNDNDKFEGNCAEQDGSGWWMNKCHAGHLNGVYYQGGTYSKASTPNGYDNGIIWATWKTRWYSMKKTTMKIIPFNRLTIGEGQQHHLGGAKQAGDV
Procedure: Size exclusion chromatography was used to determine the amount of peptide cross-linked to fibrin gels using the previously developed incorporation method. A bi-domain peptide containing the heparin-binding domain from antithrombin III and a fluorescent label was incorporated into fibrin gels during polymerization. The free peptide was washed from the gels, and the fibrin network was degraded with plasmin. The degradation products were analyzed by high performance liquid chromatography (size exclusion chromatography) to determine the amount of peptide (by fluorescence) present per mole of fibrinogen (by UV absorbance).

[6] = test system: day 8 chick embryonic dorsal root ganglia; assay: Dorsal root ganglia neurite extension in fibrin gels with peptide/heparin-bound growth factor; type: cell-based; conditions: DRG
Text: FIG. 2 is a graph of the effect of matrix bound bFGF on DRG neurite extension at 48 hr. Mean values and standard deviation of the mean are shown. (* denotes p<0.05 compared with unmodified fibrin.)
In order to evaluate this approach to release of heparin-binding growth factors from fibrin cell in-growth matrices that also comprise a covalently linked bi-domain peptide, one domain of which is a factor XIIIa substrate and one domain of which is a heparin-binding domain based on antithrombin III, dorsal root ganglia were cultured three-dimensionally within fibrin gels under a variety of conditions, as shown in the below.
Cross-linking Protocol for Use of Heparin-Binding Peptides: • 1) Dialyze fibrinogen (8 mg/ml) versus 4 L of Tris buffered saline (33 mM Tris), pH 7.4 for 24 hours. • 2) Sterile filter fibrinogen using a 0.2 μm syringe filter. • 3) Make the following peptide solutions:
• 4) Make thrombin solution: 100 units in 5 ml TBS. • 5) Add 1.4 ml of fibrinogen to each peptide solution. • 6) Make gels: Add 20 μl of TBS+50 mM CaCl2, 40 μl of thrombin solution (20 units/ml), and 340 μl of peptide solution+fibrinogen. (above solutions make 6 gels). • 7) Incubate at 37° C. for 1 hr. • 8) Wash 5 times in 24 hours. Use 1 ml of TBS the first 4 times and neuronal media the last time. • 9) Dissect day 8 chick embryonic dorsal root ganglia. • 10) Place one ganglia in each gel and place at 37° C. for 1 hr. • 11) Add 1 ml of neuronal media to each gel. • 12) Change media after 24 hours.

[7] = Dose 400 μg/mL in fibrin matrix
[8] = Dose 1000 μg/mL in fibrin matrix
[9] = fusion protein covalently immobilized in fibrin matrix

NQEQVSPLYKNRSVSEIQLMHNLGKHLNSMERVEWLRKKLQDVHNF (Modified parathyroid hormone from Homo sapiens) [TG-pl-PTH1-34]
level of healing ([1]; 3 week timepoint): very similar to that observed with a fibrin matrix alone
Healing (% defect filled with bone) ([1]; Dose 10 μg/ml in fibrin matrix): 43%
Healing (% defect filled with bone) ([1]; Dose 200 μg/ml in fibrin matrix): 50%
Healing (% defect filled with bone) ([1]; Dose 500 μg/ml in fibrin matrix): 62%
increase of healing response ([1]; high dose, 7 weeks, versus fibrin alone): 65%
Healing (% defect filled with bone) ([2]; Dose 50 μg/mL in fibrin matrix): 31.3%
Healing (% defect filled with bone) ([2]; Dose 100 μg/mL in fibrin matrix): 59.7%
Healing (% defect filled with bone) [2, 7]: 73%
Healing (% defect filled with bone) [2, 8]: 77%

TG-pl-PDGFAB: PDGF AB heterodimer with 21 amino acid TG-pl-hook on both N termini (SEQ ID NO:40 and 41)
Healing (% defect filled with bone) ([2]; Dose 60 μg/mL in fibrin matrix): 39.5%
healing response ([3]; 33 μg/mL fibrin gel, topical, all three patients): enhanced healing response
time to complete healing of wound ([3]; 33 μg/mL fibrin gel, topical, one patient, wound about 2 cm^2): ≤ 4 weeks
time to complete healing of wound ([3]; 33 μg/mL fibrin gel, topical, third patient, deep wound down to the periost (1 cm^2)): 15 weeks
decrease in wound bed depth as well as surface area ([3]; 33 μg/mL fibrin gel, topical, two large wounds on one patient (up to 17 cm^2), after 8 weeks): 30-50%
healing versus standard treatment alone ([3]; fibrin gel treatment, doctors' assessment): strong enhancement of healing

TG-P-NGF: β-NGF fusion protein with factor XIIIa substrate NQEQVSPL and functional plasmin substrate LIK/MKP (SEQ ID NO:24)
optimal dose of β-NGF fusion protein in the polymerization mixture for neurite extension ([4]; dose response in fibrin matrices): 1 to 5 µg/mL
enhancement of neurite extension over unmodified fibrin with 10 ng/mL of native NGF in medium [4, 9]: up to 50%
enhancement of neurite extension versus unmodified fibrin with no NGF present in the culture medium [4, 9]: over 350%

dLNQEQVSPK(βA)FAKLAARLYRKA
incorporation of peptide into fibrin [5]: 8.7±0.2 moles of peptide per mole of fibrinogen

VEGF
effect on neurite extension ([6]; 1.0 μg/ml bound VEGF): did not increase neurite extension

NQEQVSPLSVSEIQLMHNLGKHLN SMERVEWLRKKLQDVHNF (NQEQVSPLSVSEIQLMHNLGKHLNSMERVEWLRKKLQDVHNF; Modified parathyroid hormone from Homo sapiens) [TGPTH1-34]
Healing (% defect filled with bone) [2, 7]: 40%
Healing (% defect filled with bone) [2, 8]: 65%

TG-pl-IGF1: IGF1 fusion protein with TG-pl-hook (SEQ ID NO:42)
Healing (% defect filled with bone) ([2]; Dose 67 μg/mL in fibrin matrix): 41.5%

bFGF: basic fibroblast growth factor, heparin-binding growth factor
effect on neurite extension ([6]; 1 μg/ml and 5 μg/ml of bound bFGF (peptide + heparin in fibrin), dose dependent, 48 hr): increased
effect on neurite outgrowth ([6]; bFGF added without peptide and heparin, gels washed, 48 hr): does not enhance neurite outgrowth
